Measured values published in PMC11544713, “The Application of Untargeted Metabolomic Approaches for the Search of Common Bioavailable Metabolites in Human Plasma Samples from Lippia citriodora and Olea europaea Extracts” (Journal of Agricultural and Food Chemistry, 2024).

Key:
[1] = Acute intervention: nutrikinetics of plasma metabolites after ingestion of L. citriodora extract (untargeted HPLC-ESI-QTOF-MS)
Procedure: A total of 25 healthy individuals participated, with an average age of 27 ± 9 years and a mean body mass index (BMI) of 23 ± 3 kg/m^2. None of the participants were taking any medications or nutritional supplements nor did they have any chronic diseases or gastrointestinal issues. The sample size was established based on findings from previous bioavailability research.[14] All participants provided informed consent before participating in the study.
The intervention study was carried out at Miguel Hernández University. Following an overnight fast, the volunteers were categorized into the subsequent groups: a subgroup to evaluate the LC leaf extract (n = 8), another for the OE leaf extract (n = 8), and the placebo subgroup (n = 9). This was a double-blind study, in which sample collection and treatment were carried out uniformly across all three subgroups.
Water was provided ad libitum. Prior to the ingestion of the capsule, a nurse inserted a cannula into the ulnar vein of each volunteer’s nondominant arm, and blood samples were drawn into EDTA-coated tubes at baseline (t = 0). Blood samples were then collected at 0.5, 1, 2, 4, 6, 8, and 10 h after the consumption of the 500 mg capsule. Plasma was separated through centrifugation (10 min at 3000 rpm and 4 °C) and stored at −80 °C until further analysis.
Plasma samples were initially treated using a mixture of methanol and ethanol (50:50; v:v) to remove proteins, following previously reported protocols.[19] During the sample treatment, pooled quality controls (pooled-QC) were prepared by combining equal aliquots from each sample. These QC samples were processed by using the same protocols as the experimental biological samples.
A reversed-phase analytical C18 column (Agilent Zorbax Eclipse Plus, 1.8 μm, 4.6 × 150 mm^2) with a protective cartridge with the same packing was used. MS data were acquired in negative ionization mode, operating in full scan across a mass-to-charge ratio (m/z) range of 50–1700. The analytical method used was adapted from that described by Villegas-Aguilar et al.[19]
Metabolite nutrikinetics were studied using PKSolver, an add-in program for pharmacokinetic data analysis in Microsoft Excel. The time to reach the maximum concentration (observed Tmax) was calculated for each significant metabolite. As an untargeted metabolomic approach was used to detect the circulating metabolites, these were not quantified. Therefore, the maximum concentration (Cmax) and area under the curve (AUC) parameters were calculated in a relative way by using the deconvoluted chromatographic areas. […] Statistical differences were determined by unpaired t tests. All p values less than 0.05 were considered statistically significant.

[2] = Acute intervention: nutrikinetics of plasma metabolites after ingestion of O. europaea extract (untargeted HPLC-ESI-QTOF-MS); details: in vivo
Summary of the method: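 Fasted healthy volunteers (n = 8 per extract, placebo n = 9, double-blind) took one 500 mg capsule. Plasma was drawn at 0–10 h, protein-precipitated with methanol:ethanol and analysed by C18 HPLC-ESI-QTOF-MS in negative full scan (m/z 50–1700). Tmax was observed; Cmax and AUC are relative, from deconvoluted peak areas.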

[3] = human plasma, 500 mg capsule of L. citriodora (LC) extract, oral, mean ± SD

With “homovanillic acid sulfate [homovanillic acid sulfate isomer 2]” the “AUC: area under the zero-moment curve” value ([1]; human, in vivo, po, 500 mg) was 1771 ± 1599 relative chromatographic area/h, the “Cmax: relative maximum plasma level” value ([1]; human, in vivo, po, 500 mg) was 476 ± 363 relative chromatographic area and the “observed Tmax: time required to reach Cmax” value (shortened to “observed Tmax: time required”) ([1]; human, in vivo, po, 500 mg) was 9 ± 2 h. For the same compound, the “mean chromatographic area in plasma, T0.5” value ([1]; in vivo) was 0, the “mean chromatographic area in plasma, T1” value ([1]; in vivo) was 0 and the “mean chromatographic area in plasma, T2” value ([1]; in vivo) was 25. The “mean chromatographic area in plasma, T4” value ([1]; in vivo) was 112, the “mean chromatographic area in plasma, T6” value ([1]; in vivo) was 215 and the “mean chromatographic area in plasma, T8” value ([1]; in vivo) was 336. The “mean chromatographic area in plasma, T10” value ([1]; in vivo) was 408, the “Cmax: relative maximum plasma level” value ([2]; human, po, 500 mg) was 215 ± 68 relative chromatographic area and the “observed Tmax: time required” value ([2]; human, po, 500 mg) was 4 ± 2 h. For the same compound, the “mean chromatographic area in plasma, T0.5” value [2] was 0, the “mean chromatographic area in plasma, T1” value [2] was 76 and the “mean chromatographic area in plasma, T2” value [2] was 161. The “mean chromatographic area in plasma, T4” value [2] was 191, the “mean chromatographic area in plasma, T6” value [2] was 182 and the “mean chromatographic area in plasma, T8” value [2] was 154. The “mean chromatographic area in plasma, T10” value [2] was 130.
For `OCCc1ccc(O)c(O)c1` [hydroxytyrosol], the “AUC of the sulfated form compared to the glucuronidated form” value ([1]; human, in vivo) was “about 10 times” and the “detection in plasma samples” value [2] was “detected in plasma samples”.
For `CC(C)=C1CC2(C)C(=CC1=O)CCC(OC1OC(CO)C(O)C(O)C1O)C2C` (centres unmarked) [isopetasoside], the “mean chromatographic area in plasma, T0.5” value ([1]; 0.5 h after L. citriodora extract) was 95, the “mean chromatographic area in plasma, T1” value ([1]; 1 h after L. citriodora extract) was 394 and the “mean chromatographic area in plasma, T2” value ([1]; 2 h after L. citriodora extract) was 200. For the same compound, the “mean chromatographic area in plasma, T4” value ([1]; 4 h after L. citriodora extract) was 25, the “mean chromatographic area in plasma, T6” value ([1]; 6 h after L. citriodora extract) was 14 and the “mean chromatographic area in plasma, T8” value ([1]; 8 h after L. citriodora extract) was 0. For the same compound, the “mean chromatographic area in plasma, T10” value ([1]; 10 h after L. citriodora extract) was 0, the “AUC: area under the zero-moment curve” value [1, 3] was 722 ± 166 relative chromatographic area/h and the “Cmax: relative maximum plasma level” value [1, 3] was 455 ± 162 relative chromatographic area. The “observed Tmax: time required” value [1, 3] was 2 ± 1 h.
For `O=C(O)CCCCCCCCC(=O)O` [sebacic acid isomer, sebacic acid], the “AUC: area under the zero-moment curve” value ([1]; human, in vivo, po, 500 mg) was 141 ± 86 relative chromatographic area/h, the “Cmax: relative maximum plasma level” value ([1]; human, in vivo, po, 500 mg) was 119 ± 27 relative chromatographic area and the “observed Tmax: time required” value ([1]; human, in vivo, po, 500 mg) was 1.2 ± 0.4 h. The “mean chromatographic area in plasma, T0.5” value ([1]; in vivo) was 22, the “mean chromatographic area in plasma, T1” value ([1]; in vivo) was 102 and the “mean chromatographic area in plasma, T2” value ([1]; in vivo) was 35. For the same compound, the “mean chromatographic area in plasma, T4” value ([1]; in vivo) was 0, the “mean chromatographic area in plasma, T6” value ([1]; in vivo) was 0 and the “mean chromatographic area in plasma, T8” value ([1]; in vivo) was 0. The “mean chromatographic area in plasma, T10” value ([1]; in vivo) was 0.
